Experimental data published in US20120034608A1, “MICRORNA AS A BIOMARKER OF PANCREATIC ISLET BETA-CELL ENGAGEMENT” (Merck Sharp & Dohme Corp., priority 2009, published 2012).

What was measured:
Format in all cases: cell-based, rat
[1] = test system: INS-1 832/3 cells; assay: TAQMAN real-time quantitative RT-PCR of miRNA expression in INS-1 832/3 cells; conditions: for increase of the corresponding miRNA transcripts after transfection of precursor: overexpression experiments, TAQMAN real-time quantitative RT-PCR
Method: INS-1 832/3 and 832/13 cells were maintained in RPMI 1640 with 10% FBS and 11 mM glucose. For GLP-1 treatment, GLP-1 (7-37) amide (ABCHEM) was added in the media in the presence of 16 mM glucose for 24 hours. Total RNA was extracted with TRIZOL as in Example 1. Rat islet isolation and treatment was as follows. Pancreatic islets of Langerhans were isolated from the pancreas of normal Sprague-Dawley rats (Charles River, Ind.) by collagenase digestion and discontinuous Ficoll gradient separation (15). Islets were cultured for 2 hours in RPMI 1640 medium with 11 mM glucose for recovery from the isolation process. Then 100-200 islets were treated with 50 nM GLP-1 in the media with 11 mM glucose for 24 hours. RNA was extracted with TRIZOL as in Example 1 for quantification of microRNA species.
Fluorogenic TAQMAN detector probes specific for miR-132 (Cat# TM457), miR-212 (Cat# TM515), miR-375 (Cat#TM564), and miR-217 (Cat#1133) were purchased from Applied Biosystems (Foster City, Calif.). The TAQMAN RT-PCR reactions were performed according to the manufacturer's instructions.
Relative miRNA levels for the miRNAs of interest were determined by real-time reverse transcription reaction using the ABI PRISM 7900 Sequence Detection System from Applied Biosystems (Foster City, Calif.) according to the manufacturer's protocol. Briefly, 10 ng of total RNA was mixed with 1 U MultiScribe Reverse Transcriptase, 0.25 U RNase Inhibitor, 3 μL hairpin-looped miRNA-specific RT primer, 1 mM dNTPs and 1× Reverse Transcription Buffer in a total volume of 15 μL. The mixture was incubated at 16° C. for 30 minutes, 42° C. for another 30 minutes, and the reaction was stopped by heating to 85° C. for 5 minutes. Real time PCR reaction was set up in 20 μL volume with 1.33 μL first strand cDNA, 1× TAQMAN MicroRNA Assay Mix and 1× TAQMAN Universal PCR Master Mix. After activation of the AMPLITAQ Gold DNA polymerase at 95° C. for 10 minutes, 40 cycles of two-step PCR were run (95° C. for 15 seconds and 60° C. for 60 seconds). Data were collected and analyzed with SDS v.2.2.2 software (Applied Biosystems). 4.5S RNA or U6 probe (Applied Biosystems) was used as a reference to determine the relative abundance of each miRNA in different samples. TAQMAN RT-PCR was performed according the manufacturer's instructions.
The absolute miRNA levels were determined by reverse transcription reactions in GeneAmp PCR system 9700 followed by amplification using the ABI PRISM 7900HT Sequence Detection System from Applied Biosystems (Foster City, Calif.) through 40 cycles. 4.5S RNA (H) probe (Cat#TM1716) or U6 (Cat#TM1973) was used as reference to determine the relative abundance of each miRNA in different samples. The induction of miR-132 and miR-212 expression by GLP-1 started around 4 hour post-GLP-1 treatment, peaked at 24 hours and was sustained up to 48 hours (FIG. 2).

[2] = test system: INS-1 832/3 cells; assay: glucose dependent insulin secretion (GDIS) assay in INS-1 832/3 cells; conditions: for GLP-1 potentiation of GDIS: 16 mM glucose + 10 nM GLP-1, 48 hour post transfection; for GLP-1 potentiation of GDIS / glucose-dependent insulin secretion (GDIS): vs scramble control; for insulin release as percentage of insulin secretion of intracellular insulin content / glucose-dependent insulin secretion (GDIS) / basal insulin secretion at low glucose / insulin release stimulated by KCl: 48 hours post-transfection; for glucose-dependent insulin secretion (GDIS): two hour incubation in KRB; for insulin content: cell lysates, normalized to total protein; for basal insulin secretion at low glucose: 2 mM glucose; for insulin release stimulated by KCl: 30 mM KCl
Text: (§1) We overexpressed the precursors of miR-132 and miR-212 to evaluate their possible contribution to β-cell function. MicroRNA miR-375 was included as a control as it been reported to have an inhibitory effect on GDIS (Poy et al., Nature 432: 226-230 (2004)). Chemically modified Pre-miR™ miRNA precursor molecules and Anti-miR™ miRNA inhibitors were purchased from Ambion (Foster City, Calif.). miRCURY LNA™ microRNA knockdown oligonucleotides were purchased from Exiqon (Woburn, Mass.). The oligonucleotide molecules were delivered to the cells by the Nucleofector Device (Amaxa, Gaithersburg, Md.). In brief, INS-1 cells were trypsinized, centrifuged, and resuspended in 100 μl Nucleofector solution V. Then 100-500 pmole RNA oligonucleotides were transfected to 3-million cells at the concentration of 1-5 μM with the Amaxa Nucleofector Device. Scramble controls from the vendors were used with the same transfection method. After electroporation, the cells were transferred to regular culture medium and then split into replicates in 96-well plates. Insulin secretion assay or LANCE cAMP assay were performed 48 hours post electroporation.
(§2) INS-1 cell glucose dependent insulin secretion (GDIS) assay was performed as follows. The GDIS assay was performed with cells grown to near confluency in 96-well plates. Prior to the assay, cells were washed once with PBS and pre-incubated for two hours in freshly prepared Krebs-Ringer Bicarbonate (KRB) medium without glucose. The medium were then replaced with KRB with 2, 8 or 16 mM glucose or along with 10 nM GLP-1. The cells were incubated for another two hours in a CO2 incubator. The media was then removed at the end of incubation, and assayed for insulin levels by Ultra-sensitive Rat Insulin ELISA kit (ALPCO, Salem, N.H.) or insulin immunoassay by Gyrolab workstation (GYROS AB, Uppsala, Sweden). Intracellular insulin was extracted by acid ethanol method for measuring intracellular insulin content. Total protein was measured by Pierce 660 nm Protein Assay from Pierce Biotechnology, Inc. (Rockford, Ill.).

[3] = test system: INS-1 832/3 cells; assay: TAQMAN quantification of insulin (Ins1) transcripts in INS-1 832/3 cells; conditions: normalized to β-actin
Text: as §1
We further measured the insulin content and found it was unchanged by miR-132 or miR-212 overexpression (FIG. 7B). […] Furthermore, we measured insulin transcripts by TAQMAN analysis in cells over-expressing these microRNA molecules. Ins1 TAQMAN probe from Applied Biosystems (Foster City, Calif.) was used to measure insulin transcript levels and normalized to β-actin. […] In this series of experiments, miR-132, miR-212 and miR-375 transcripts were increased by about 1000-fold, 2000-fold, and 8-fold, respectively, as assayed by TAQMAN real-time quantitative RT-PCR.

[4] = test system: INS-1 832/13 cells; assay: LANCE cAMP assay in INS-1 832/13 cells; conditions: for cAMP levels: cells overexpressing the precursor vs scramble control
Text: as §1
(§3) For the Lance cAMP assay, INS1 832/3 and 832/13 cells were grown to near confluency in flasks. 9000 cells were incubated with GLP-1 or Exendin-4 in stimulation buffer at concentrations as indicated in figure legends for 1 hour at 37° C. cAMP levels were measured using LANCE cAMP assay kit in 384-well format according to manufacture's protocol (Perkin Elmer, Waltham, Mass.). Counts were calculated to cAMP concentrations using a cAMP standard curve. Each condition was measured in quadruplicate.

[5] = test system: INS-1 832/13 cells; assay: glucose dependent insulin secretion (GDIS) assay in INS-1 832/13 cells; conditions: transfected cells vs scramble control
Text: as §1, §2

[6] = test system: INS-1 832/3 cells; assay: LANCE cAMP assay in INS-1 832/3 cells; conditions: one hour stimulation, 5.5 mM glucose
Method: as §3

[7] = 50 nM GLP-1, 50 nM Exendin-4, 5 μM IBMX, 1 μM Foskolin (FIG. 6A)

Substance | increase of the corresponding miRNA transcripts after transfection of precursor [1] | GLP-1 potentiation of GDIS [2] | insulin release as percentage of insulin secretion of intracellular insulin content [2] | glucose-dependent insulin secretion (GDIS) [2] | insulin content [2] | insulin (Ins1) transcripts [3] | cAMP levels [4] | basal insulin secretion at low glucose [2] | insulin release stimulated by KCl [2] | effect of GLP-1 (GLP-1 potentiation) [5] | insulin secretion (GDIS) [5] | miR-132 expression [1, 7] | miR-212 expression [1, 7] | miR-375 expression [1, 7] | cAMP accumulation [6] | cAMP accumulation ([4]; one hour stimulation, 5.5 mM glucose)
miR-375: chemically modified Pre-miR miRNA precursor molecule (Ambion) transfected to overexpress miR-375, control (guide UUUGUUCGUUCGGCUCGCGUGA; chemically modified Pre-miR precursor, pattern not given here) | ~8 fold | not | decreased | significantly suppressed | reduction | moderately down-regulated |  |  |  |  |  |  |  |  |  | 
miR-212: chemically modified Pre-miR miRNA precursor molecule (Ambion) transfected to overexpress miR-212 (guide UAACAGUCUCCAGUCACGGCC; chemically modified Pre-miR precursor, pattern not given here) | ~2000 fold | enhanced | significantly increased | significantly enhanced | unchanged | no effect | no changes | unchanged | significantly enhanced | augmented | significantly increased |  |  |  |  | 
Exendin-4: GLP-1 analog, cAMP raising agent |  |  |  |  |  |  |  |  |  |  |  | significantly increased | significantly increased | remained unchanged | dose-dependent accumulation | loss of such response
miR-132: chemically modified Pre-miR miRNA precursor molecule (Ambion) transfected to overexpress miR-132 (guide UAACAGUCUACAGCCAUGGUCG; chemically modified Pre-miR precursor, pattern not given here) | about 1000 fold | robustly increased | significantly increased | significantly enhanced | unchanged | no effect | no changes | unchanged | significantly enhanced | augmented | significantly increased |  |  |  |  | 
